From patent publication US12533362B2, “Methods for treating diseases associated with ciliopathies” (ALEXION PHARMACEUTICALS, INC., priority 2017, dated 2026)
Values belong to the compound of their own block, whether it stands above or below them.

Key:
[1] = tested on: NPHP patient-derived cells; assay: automated cilia-based ciliogenesis assay in NPHP patient-derived cells; format: cell-based, human; details: for restoration of ciliogenesis at the highest concentration: 40 μM dinoprostone and 20 μM dmPGE2, may be due to cytotoxicity; for ciliogenesis restorative effect: FIG. 11A; for effect on ciliogenesis (percentage of ciliated cells) as compared with DMSO: drug screening, various tested concentrations, FIG. 5 / FIG. 6
Description: (§1) To identify compounds for treating diseases associated with ciliopathies such as, for example, NPHP, NPHP patient-derived cells were obtained and cell lines were established. Briefly, peeled renal epithelial cells, which are mostly proximal tubule cells (tbc) recovered from urine of NPHP1-deficient patients, were immortalized by retroviral gene transfer of SV40 T antigen. Cells were fixed and fluorescence-labeled with Hoechst (for nuclei staining), anti-γ-tubulin antibody (for basal bodies staining), and anti-ARL13B antibody (for cilia staining) for detection using immunofluorescence microscopy.
(§2) Briefly, NPHP patient-derived cells and control cells were cultured in complete media, at 39C (non-permissive temperature for SV40 expression), followed by automatic cilia analysis using immunofluorescence microscopy to measure ciliogenesis, e.g., in terms of % cilia. A spinning disk platform may be used for drug screening (FIG. 5, A-J) and ciliogenesis analysis of G3 multi-OMICs dataset (FIG. 29, A-E).
(§3) The cilia-based assay described above may be used to identify compounds that restore ciliogenesis. […] Automated random acquisition of 35 images per well may be performed, for example. Each image may have z-stack of 10 images taken at <1 μm intervals.

[2] = tested on: control normal epithelial cells; assay: automated cilia-based ciliogenesis assay in control normal epithelial cells; format: cell-based, human; details: control normal cells, FIG. 11A
Description: as §1, §2
as §3, with “intervals. Consecutive imaging of nucleus (Hoechst at 461 nm), basal body (γ-tubulin at 555 nm) and cilia (ARL13b at 647 nm) may be obtained.” for “intervals.”

control cells = assay: exogenous PGE2 effect on cilia in control cells; format: cell-based; details: addition of exogenous PGE2, FIG. 12
zebrafish NPHP4 MO = assay: zebrafish NPHP4 morpholino (MO) model; format: in vivo
Description: Briefly, wild-type Tg(wt1b:GFP) transgenic zebrafish embryos were injected with morpholino (e.g., nphp4 ATG MO) at one-cell stage. At 8 hours post-fertilization (hpf), injected embryos were treated with drug or vehicle in PTU-egg water (1 mL in 12-well plates). At 24 hpf, drug treatment was renewed, and pronase was added at 36 hpf for chorion removal.

Nphp1−/− mice = assay: retinal degeneration in Nphp1−/− mouse model; format: in vivo
Description: Homozygous deletion of NPHP1 is the most common cause of juvenile nephronophthisis 1. Homozygous or compound heterozygous mutations in NPHP1 are also associated with, for example, Joubert syndrome 4 (brain abnormalities) and Senior-Løken syndrome 1 (retinopathy). NPHP1 KO animals were generated to test whether taprenepag can be used to treat these diseases. To establish a CRISPR/Cas9-engineered Nphp1^−/− mouse model, single guide RNAs were injected in C57BL/6J embryos, and generated a 76 bp deletion encompassing the ATG in exon 1 of Nphp1. To characterize the natural history of Nphp1^−/− mouse model, histochemical staining of kidney and retina sections was performed from Nphp1^+/+ and Nphp1^−/− mice.
To evaluate the retinal degeneration, a semi-automated tool was developed to provide detection and quantitative thickness measurements of each retinal layers at five distant plans manually marked on the retinal section (FIG. 38B). Semi-automated quantification analysis confirms a clear decrease in thickness of photoreceptors layers ONL, IS and OS (FIG. 38C).
To assess the effect of Nphp1 deletion on the structural organization of photoreceptors in this model, immunohistochemistry (IH) analysis was performed on retina sections from Nphp1^+/+ and Nphp1^−/− mice (FIGS. 39A and B). Tissues were fixed and fluorescence-labeled with DAPI (for nuclei staining), anti-rhodopsin antibody (for OS staining), and anti-Cep290 antibody (for connecting cilia staining) or PNA (for OS and IS staining), detected using immunofluorescence microscopy.
To assess the effect of Nphp1 deletion on the functionality of photoreceptors, electroretinogram (ERG) was performed on Nphp1^+/+ and Nphp1^−/− mice, under light stimuli of different intensities (FIGS. 40A-C). FIGS. 40A and B show ERG a- and b-waves recorded from the same animals at P21, for a given light intensity. In contrast with Nphp1^+/+ mice, Nphp1^−/− mice display drastically lower ERG amplitudes at a given intensity of light stimulus. […]

[3] = pharmacokinetics study in wild type mice; details: intraperitoneal; taprenepag isopropyl 1 mg/kg or 8 mg/kg, taprenepag 8 mg/kg; different time points
Description: After intraperitoneal injections of taprenepag isopropyl (1 mg/kg or 8 mg/kg) or taprenepag (8 mg/kg), the concentrations of these compounds in various organs were determined at different time points.

EP4 receptor = EP4 receptor (Homo sapiens, UniProt P35408); details: cited from earlier work
[4] = meta-analysis, multiple NPHP patient-derived cell lines

Sequence of EP4 receptor (P35408 whole entry): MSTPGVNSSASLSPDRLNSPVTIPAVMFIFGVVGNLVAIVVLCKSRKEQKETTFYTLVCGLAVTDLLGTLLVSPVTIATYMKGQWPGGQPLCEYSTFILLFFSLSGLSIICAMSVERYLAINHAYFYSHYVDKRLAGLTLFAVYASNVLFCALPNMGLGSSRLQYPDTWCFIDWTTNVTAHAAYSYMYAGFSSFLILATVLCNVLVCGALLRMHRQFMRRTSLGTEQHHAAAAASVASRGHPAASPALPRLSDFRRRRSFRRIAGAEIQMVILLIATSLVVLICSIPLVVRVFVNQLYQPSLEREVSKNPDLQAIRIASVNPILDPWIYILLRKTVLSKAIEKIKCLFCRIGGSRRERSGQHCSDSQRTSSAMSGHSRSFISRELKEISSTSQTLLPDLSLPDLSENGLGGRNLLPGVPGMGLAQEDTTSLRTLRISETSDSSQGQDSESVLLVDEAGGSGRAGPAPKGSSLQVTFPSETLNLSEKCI

SMILES: CCCCC[C@H](O)/C=C/[C@H]1[C@H](O)CC(=O)[C@@H]1C/C=C\CCCC(=O)O [dinoprostone, prostaglandin E2]
restoration of ciliogenesis at the highest concentration [1]: slight decrease in restoration of ciliogenesis | ciliogenesis restorative effect [1]: ciliogenesis restorative effects similar to that of alprostadil | effect on ciliogenesis [2]: no significant effect was observed | cilia length and percentages of ciliated cells (control cells): increased both cilia length and percentages of ciliated cells | % severe, mild and normal pronephric cysts (zebrafish NPHP4 MO; 50 μM vs DMSO, p<0.008 Fischer's exact test): significantly reduced % severe and mild pronephric cysts and increased % normal pronephric cysts | % normal body axis curvature (zebrafish NPHP4 MO; 50 μM vs DMSO, p=0.0066 Fischer's exact test): significantly increases % normal body axis curvature | dorsal curvature (zebrafish NPHP4 MO; 50 μM vs DMSO, p=0.0577 t-test): did not significantly affect dorsal curvature

SMILES: CCN(CC)C(C)CN1c2ccccc2Sc2ccccc21 (stereo not drawn) [ethopropazine]
effect on ciliogenesis (percentage of ciliated cells) as compared with DMSO [1]: did not have a significant effect on ciliogenesis

SMILES: CN1[C@@H]2CC[C@H]1C[C@@H](OC(=O)c1c[nH]c3ccccc13)C2 [tropisetron]
effect on ciliogenesis (percentage of ciliated cells) as compared with DMSO [1]: did not have a significant effect on ciliogenesis

EC50 ([1]; semi-log representation of ciliogenesis titration, FIG. 16C, read-out: EC50 for EP2 from CP-544326 titration): 11 nM | stability in vivo (concentrations in plasma, kidney, testis, retina, vitreous humor) [3]: more stable than taprenepag isopropyl
SMILES: O=C(O)COc1cccc(CN(Cc2ccc(-n3cccn3)cc2)S(=O)(=O)c2cccnc2)c1 [CP-544326, taprenepag]
ciliogenesis, dose response compared to DMSO ([1]; FIG. 16B): restores ciliogenesis in a dose-dependent manner | ciliogenesis as compared with DMSO ([1]; cell lines 1-09-P, 1-06-P1 and 1-06-P2 derived from NPHP1(del) patients, FIG. 17C): increases ciliogenesis in multiple cell lines | ciliogenesis, meta-analysis ([1]; compared with alprostadil, FIG. 16A): restores ciliogenesis to a similar level as alprostadil | linear regression pooled slope value of effect on ciliogenesis [1, 4]: 1.36 | linear regression range of slope values of effect on ciliogenesis [1, 4]: 1.245 to 1.532 | % severe, mild and normal pronephric cysts (zebrafish NPHP4 MO; 100 nM vs DMSO, p<0.01 Fischer's exact test): significantly reduces % severe pronephric cysts and increases % mild and normal pronephric cysts | ONL/OPL retina layers thicknesses ratio (Nphp1−/− mice; 18 mg/kg i.p. every 3 or 4 days from P6 until P21, vs vehicle, p<0.05 Mann-Whitney test): significantly prevents the decrease of ONL/OPL ratio | rhodopsin mislocalization (Mean Green intensity in ONL) (Nphp1−/− mice; 18 mg/kg i.p., vs vehicle, p<0.05 unpaired t-test): significantly prevented rhodopsin mislocalization | electroretinogram a-wave amplitude of photoreceptor response (Nphp1−/− mice; 18 mg/kg i.p., vs vehicle-treated Nphp1−/− mice): slight improvement in the amplitude of photoreceptor response

SMILES: CC(=O)O[C@H]1C(=O)[C@@]2(C)[C@H]([C@H](OC(=O)c3ccccc3)[C@]3(O)C[C@H](OC(=O)[C@H](O)[C@@H](NC(=O)c4ccccc4)c4ccccc4)C(C)=C1C3(C)C)[C@]1(OC(C)=O)CO[C@@H]1C[C@@H]2O [paclitaxel]
effect on ciliogenesis (percentage of ciliated cells) as compared with DMSO [1]: did not have a significant effect on ciliogenesis

SMILES: Cc1cccc([C@@H](C)[C@H](O)/C=C/[C@@H]2[C@@H]3[C@H](C[C@H]2O)O/C(=C\CCCc2nnn[nH]2)C3(F)F)c1 [KAG-308]
EP4 agonist potency (EP4 receptor): low nanomolar EP4-agonist

SMILES: COc1ccc(C2CC(c3ccccc3)=NN2c2ccc(S(N)(=O)=O)cc2)cc1 (stereo not drawn) [ML-141]
effect on ciliogenesis (percentage of ciliated cells) as compared with DMSO [1]: did not have a significant effect on ciliogenesis

SMILES: COc1ccc(CCN(C)CCCC(C#N)(c2ccc(OC)c(OC)c2)C(C)C)cc1OC (stereo not drawn) [verapamil]
effect on ciliogenesis (percentage of ciliated cells) as compared with DMSO [1]: did not have a significant effect on ciliogenesis

SMILES: CN(C)CCC(c1ccccc1)c1ccccn1 (stereo not drawn) [pheniramine]
effect on ciliogenesis (percentage of ciliated cells) as compared with DMSO [1]: did not have a significant effect on ciliogenesis

SMILES: CCCCC(C)(C)[C@H](O)/C=C/[C@H]1[C@H](O)CC(=O)[C@@H]1C/C=C\CCCC(=O)O [dmPGE2, 16,16-dimethyl-PGE2]
restoration of ciliogenesis at the highest concentration [1]: slight decrease in restoration of ciliogenesis | ciliogenesis restorative effect [1]: ciliogenesis restorative effects similar to that of alprostadil | effect on ciliogenesis [2]: no significant effect was observed

SMILES: O=C1c2c(O)ccc(O)c2C(=O)c2c(NCCNCCO)ccc(NCCNCCO)c21 [mitoxantrone]
effect on ciliogenesis (percentage of ciliated cells) as compared with DMSO [1]: did not have a significant effect on ciliogenesis

SMILES: O=C1CC[C@H](/C=C/[C@@H](O)C(F)(F)c2ccccc2)N1CCCCCCc1nnn[nH]1 [L902,688]
effect on ciliogenesis ([1]; prostanoid EP4 agonist, FIG. 17A): does not significantly affect ciliogenesis
